“Also recorded” adds a separate entry of the source. Like-named read-outs stand apart in the source and are kept apart here. Marks after values point to notes of the source that are not given here.
Key:
[1] = Weight of mouse during topical treatment of UVB-pretreated high risk SKH-1 mice; type: in vivo
Protocol: Female SKH-1 mice were treated with 30 mJ/cm^2 of UVB twice a week for 20 weeks.

[2] = tested on: apoptotic sunburn cells in the epidermis of C57/BL/6J p53(−/−) mice; assay: UVB-induced apoptotic sunburn cells in C57/BL/6J p53(−/−) mice, topical caffeine; type: in vivo, mouse
Protocol: (§1) The time course for apoptosis was determined by utilizing morphologically distinct sunburn cells as the marker for apoptosis. […] Accordingly, studies with a C57/BL/6J mouse were performed with a 60 mJ/cm^2 dose of UVB.
(§2) Measurement of apoptotic sunburn cells. Identification of apoptoic sunburn cells was based morphologically on cell shrinkage and nuclear condensation due to fragmentation of the cells. […] The percentage of apoptotic sunburn cells in the epidermis (basal plus suprabasal layers) was calculated from the number of these cells per 100 cells counted from the entire 20 mm length of epidermis for each skin section.

[3] = tested on: phospho-Chk2 (Ser387); assay: Epidermal phospho-Chk2 (Ser387) in UVB-treated mice, western blot; type: in vivo, mouse; conditions: topical immediately after UVB 30 mJ/cm2; 6 hours
[4] = tested on: UVB-induced skin lesions in SKH-1 mice; assay: Prevention of UVB-induced skin (sunburn) lesions, sunscreen effect; type: in vivo, mouse; conditions: 4.8% caffeine or 8.0% caffeine sodium benzoate (24 μmoles) in 100 mg DERMABASE 30 minutes before UVB 180 mJ/cm^2 on two consecutive days (FIG. 2)
Protocol: The areas (mm^2) and the intensity of red color in UVB-induced skin lesion were estimated semi-quantitatively 5 days after first UVB treatment. The lesion index were calculated as the lesion area multiplied by the arbitrary intensity: 0, no lesion; 1 barely detectable red lesion; 2 moderate red lesion, and 3, bright red lesion.
Outdoor occupational human exposure to UVB or a sunbathing exposure in the summer has been reported to range from 50-100 mJ/cm^2 per day (Larko, et al. (1983) Clin. Exp. Dermatol. 8:279-285; Diffey (1991) Phys. Med. Biol. 36:299-328).

[5] = tested on: cyclin B1; assay: Epidermal cyclin B1 in UVB-treated mice, western blot and immunohistochemistry; type: in vivo, mouse
[6] = tested on: apoptotic sunburn cells in the epidermis of SKH-1 mice; assay: UVB-induced apoptotic sunburn cells in the epidermis of SKH-1 mice after topical application; type: in vivo, mouse
Protocol: Chemicals and Animals. […] Female SKH-1 hairless mice (6 to 7 weeks old) were purchased from the Charles River Breeding Laboratories, and the animals were kept in an animal facility for at least one week before use at 7 to 8 weeks of age. Mice were given water and PURINA® Laboratory CHOW® 5001 diet from Ralston-Purina (St. […] For the analysis conducted herein, 5 mice were used per group. Treatment of Mice with UVB. […] The radiation was further calibrated with a model IL-1700 research radiometer/photometer (International Light, Newburyport, Mass.). Measurement of apoptotic sunburn cells. Identification of apoptoic sunburn cells was based morphologically on cell shrinkage and nuclear condensation due to fragmentation of the cells. […] Six hours after UVB, the animals were sacrificed and apoptotic sunburn cells in the epidermis were determined morphologically. […] Six hours after UVB, the animals were sacrificed and apoptotic sunburn cells in the epidermis were determined morphologically. […] Acetone Formulation. […] Six hours after UVB, the animals were sacrificed and apoptotic sunburn cells in the epidermis were determined morphologically. […] […] Formulations. […] Six hours after UVB the animals were sacrificed and apoptotic sunburn cells in the epidermis were determined morphologically. […] Six hours after UVB the animals were sacrificed and apoptotic sunburn cells in the epidermis were determined morphologically.

[7] = tested on: apoptotic sunburn cells in the epidermis of C57/BL/6J p53(+/+) mice; assay: UVB-induced apoptotic sunburn cells in C57/BL/6J p53(+/+) mice, topical caffeine; type: in vivo, mouse
Protocol: as §1, §2

[8] = tested on: UVB-induced skin tumors in high risk SKH-1 mice

Cn1c(=O)c2c(ncn2C)n(C)c1=O [Caffeine, caffeine]
Weight of mouse ([1]; week 0, 1.2% CF in DERMABASE): 30.3 ± 0.5 g
Weight of mouse ([1]; week 0, 3.6% CF in DERMABASE): 30.5 ± 0.6 g
Weight of mouse ([1]; week 5, 1.2% CF in DERMABASE): 29.6 ± 0.5 g
Weight of mouse ([1]; week 5, 3.6% CF in DERMABASE): 30.0 ± 0.5 g
Weight of mouse ([1]; week 7, 1.2% CF in DERMABASE): 29.5 ± 0.5 g
Weight of mouse ([1]; week 7, 3.6% CF in DERMABASE): 29.6 ± 0.5 g
Weight of mouse ([1]; week 9, 1.2% CF in DERMABASE): 30.0 ± 0.4 g
Weight of mouse ([1]; week 9, 3.6% CF in DERMABASE): 29.8 ± 0.5 g
Weight of mouse ([1]; week 11, 1.2% CF in DERMABASE): 30.0 ± 0.5 g
Weight of mouse ([1]; week 11, 3.6% CF in DERMABASE): 30.1 ± 0.5 g
enhancement of UVB-induced increase in apoptotic sunburn cells ([2]; female p53(−/−), UVB 60 mJ/cm^2, 6 hours after UVB): 563%
effect on apoptosis in non-UVB-treated epidermis ([2]; male p53(−/−), no UVB): no effect
UVB-induced increase in the level of phospho-Chk2 (Ser387) [3]: inhibited
formation of UVB-induced sunburn (skin) lesions [4]: inhibited the formation of sunburn lesions; also recorded: inhibited UVB-induced sunburn lesions
percent of cyclin B1 positive cells in the epidermis ([5]; UVB-treated mice, frozen sections, immunohistochemical): substantially enhanced
effect on cyclin B1 positive cells in the absence of UVB ([5]; no UVB): little or no effect
level of epidermal cyclin B1 vs UVB alone ([5]; topical immediately after UVB 30 mJ/cm2, western blot): increased substantially
Percent Sunburn Cells, UVB ([6]; 6.2 μmole (each) in 100 μL acetone:water (9:1) immediately after UVB 30 mJ/cm^2 and at 30 and 120 min, 6 h, mean ± S.E.): 0.64 ± 0.15%
Percent Apoptotic Sunburn Cells ([6]; 6.2 μmole in 100 μL acetone right after UVB 30 mJ/cm^2 and at 30 and 120 min, 6 h after UVB, mean ± S.E.): 0.506 ± 0.013^a %
Percent Sunburn Cells, UVB ([6]; 100 mg formulation (2.4% caffeine or 4.0% caffeine sodium benzoate, 12.4 μmole, in DERMABASE; or commercial product) immediately after UVB 30 mJ/cm^2, 6 h): 1.96 ± 0.20^a %
Percent Sunburn Cells, UVB ([6]; 0.6% Caffeine in 100 mg DERMABASE immediately after UVB 30 mJ/cm^2, 6 h): 0.40 ± 0.18^a %
Percent Sunburn Cells, UVB ([6]; 1.2% Caffeine in 100 mg DERMABASE immediately after UVB 30 mJ/cm^2, 6 h): 0.58 ± 0.12^a %
Percent Sunburn Cells, UVB ([6]; 2.4% Caffeine in 100 mg DERMABASE immediately after UVB 30 mJ/cm^2, 6 h): 0.58 ± 0.14^a %
Percent Sunburn Cells, UVB ([6]; 3.6% Caffeine in 100 mg DERMABASE immediately after UVB 30 mJ/cm^2, 6 h): 0.82 ± 0.10^a %
Percent Sunburn Cells, UVB ([6]; 4.8% Caffeine in 100 mg DERMABASE immediately after UVB 30 mJ/cm^2, 6 h): 0.96 ± 0.13^a %
enhancement of UVB-induced apoptosis in the epidermis, applied in DERMABASE ([6]; DERMABASE vehicle, equimolar amounts (Table 4)): more effective at enhancing UVB-induced apoptosis when applied to the skin in DERMABASE™ than when applied to the skin in acetone
Percent Apoptotic Sunburn Cells ([6]; Exp-1, 6.2 μmole in acetone:water (9:1) x3 after UVB 30 mJ/cm^2, 6 h): 0.51 ± 0.01%
Percent Apoptotic Sunburn Cells ([6]; Exp-2, 6.2 μmole in acetone:water (9:1) x3 after UVB 30 mJ/cm^2, 6 h): 0.48 ± 0.04%
% Induction ([6]; Table 1, vs acetone group, 6.2 μmole x3 after UVB 30 mJ/cm^2, 6 h): 148%
% Induction ([6]; Table 2, vs acetone, 6.2 μmole in acetone:water (9:1)): 205%
% Induction ([6]; Table 3 Exp-1, 6.2 μmole): 155%
% Induction ([6]; Table 3 Exp-2, 6.2 μmole): 129%
% Induction ([6]; Table 4, 0.6% Caffeine in DERMABASE): 100%
% Induction ([6]; Table 4, 1.2% Caffeine in DERMABASE): 190%
% Induction ([6]; Table 4, 2.4% Caffeine in DERMABASE): 190%
% Induction ([6]; Table 4, 3.6% Caffeine in DERMABASE): 270%
% Induction ([6]; Table 5, vs DERMABASE, 100 mg formulation after UVB): 284%
enhancement of formation of UVB-induced apoptotic sunburn cells vs UVB plus acetone ([7]; female p53(+/+), 1.2 mg in 100 μL acetone immediately, 0.5 and 2 h after UVB 60 mJ/cm^2, 6 hours after UVB): 127%
effect on apoptosis in non-UVB-treated mice ([7]; female p53(+/+), no UVB): no effect
effect on apoptosis in non-UVB-treated epidermis ([7]; male p53(+/+), no UVB): no effect
No. of large tumors (diameter > 5 mm) ([8]; week 0, 1.2% CF in DERMABASE): 0
Tumor volume per mouse (all mice) (mm^3) ([8]; week 0, 1.2% CF in DERMABASE): 0 mm^3
Tumor volume per tumor (mm^3) ([8]; week 0, 1.2% CF in DERMABASE): 0 mm^3
Tumors per mouse ([8]; week 0, 1.2% CF in DERMABASE): 0
No. of large tumors (diameter > 5 mm) ([8]; week 0, 3.6% CF in DERMABASE): 0
Tumor volume per mouse (all mice) (mm^3) ([8]; week 0, 3.6% CF in DERMABASE): 0 mm^3
Tumor volume per tumor (mm^3) ([8]; week 0, 3.6% CF in DERMABASE): 0 mm^3
Tumors per mouse ([8]; week 0, 3.6% CF in DERMABASE): 0
No. of large tumors (diameter > 5 mm) ([8]; week 5, 1.2% CF in DERMABASE): 0
Tumor volume per mouse (all mice) (mm^3) ([8]; week 5, 1.2% CF in DERMABASE): 0.1 ± 0.0 mm^3
Tumor volume per tumor (mm^3) ([8]; week 5, 1.2% CF in DERMABASE): 0.5 ± 0.0 mm^3
Tumors per mouse ([8]; week 5, 1.2% CF in DERMABASE): 0.1 ± 0.1
No. of large tumors (diameter > 5 mm) ([8]; week 5, 3.6% CF in DERMABASE): 0
Tumor volume per mouse (all mice) (mm^3) ([8]; week 5, 3.6% CF in DERMABASE): 0.1 ± 0.0 mm^3
Tumor volume per tumor (mm^3) ([8]; week 5, 3.6% CF in DERMABASE): 0.5 ± 0.0 mm^3
Tumors per mouse ([8]; week 5, 3.6% CF in DERMABASE): 0.2 ± 0.1
No. of large tumors (diameter > 5 mm) ([8]; week 7, 1.2% CF in DERMABASE): 0
Tumor volume per mouse (all mice) (mm^3) ([8]; week 7, 1.2% CF in DERMABASE): 0.4 ± 0.2 mm^3
Tumor volume per tumor (mm^3) ([8]; week 7, 1.2% CF in DERMABASE): 1.3 ± 0.5 mm^3
Tumors per mouse ([8]; week 7, 1.2% CF in DERMABASE): 0.4 ± 0.1
No. of large tumors (diameter > 5 mm) ([8]; week 7, 3.6% CF in DERMABASE): 0
Tumor volume per mouse (all mice) (mm^3) ([8]; week 7, 3.6% CF in DERMABASE): 0.3 ± 0.1 mm^3
Tumor volume per tumor (mm^3) ([8]; week 7, 3.6% CF in DERMABASE): 1.3 ± 0.7 mm^3
Tumors per mouse ([8]; week 7, 3.6% CF in DERMABASE): 0.2 ± 0.1
No. of large tumors (diameter > 5 mm) ([8]; week 9, 1.2% CF in DERMABASE): 0
Tumor volume per mouse (all mice) (mm^3) ([8]; week 9, 1.2% CF in DERMABASE): 2.0 ± 1.0 mm^3
Tumor volume per tumor (mm^3) ([8]; week 9, 1.2% CF in DERMABASE): 3.3 ± 1.5 mm^3
Tumors per mouse ([8]; week 9, 1.2% CF in DERMABASE): 0.6 ± 0.2
No. of large tumors (diameter > 5 mm) ([8]; week 9, 3.6% CF in DERMABASE): 0
Tumor volume per mouse (all mice) (mm^3) ([8]; week 9, 3.6% CF in DERMABASE): 0.8 ± 0.5 mm^3
Tumor volume per tumor (mm^3) ([8]; week 9, 3.6% CF in DERMABASE): 1.9 ± 1.1 mm^3
Tumors per mouse ([8]; week 9, 3.6% CF in DERMABASE): 0.4 ± 0.1
No. of large tumors (diameter > 5 mm) ([8]; week 11, 1.2% CF in DERMABASE): 0
Tumor volume per mouse (all mice) (mm^3) ([8]; week 11, 1.2% CF in DERMABASE): 3.7 ± 1.4 mm^3
Tumor volume per tumor (mm^3) ([8]; week 11, 1.2% CF in DERMABASE): 3.5 ± 1.0 mm^3
Tumors per mouse ([8]; week 11, 1.2% CF in DERMABASE): 1.1 ± 0.3
No. of large tumors (diameter > 5 mm) ([8]; week 11, 3.6% CF in DERMABASE): 0
Tumor volume per mouse (all mice) (mm^3) ([8]; week 11, 3.6% CF in DERMABASE): 1.6 ± 0.6 mm^3
Tumor volume per tumor (mm^3) ([8]; week 11, 3.6% CF in DERMABASE): 1.3 ± 0.4 mm^3
Tumors per mouse ([8]; week 11, 3.6% CF in DERMABASE): 1.2 ± 0.3

Source: patent US8029770B2 (Rutgers, The State University, priority 2003, dated 2011)
